# Measurements from US10213436B2, “Methods of treating cancer using aurora kinase inhibitors” (Millennium Pharmaceuticals, Inc., priority 2012, dated 2019).
# Where two headings read alike, the source gives them in different places.
# Columns and labels:
# [1] = system: NCI-H69; experiment: NCI-H69 small cell lung cancer xenograft model
# Method: Procedure. […] Treatments began when tumors reached approximately 200 mm^3 following subcutaneous tumor implantation with NCI-H69 tumor fragments for all groups containing 10 female immunocompromised nu/nu mice per group. MLN8237 was tested at a dose of 20 mg/kg administered PO on a QIDx21-Q8Hx2 schedule and at doses of 20 and 10 mg/kg on a QIDx21 schedule. Paclitaxel was tested at doses of 30 and 15 mg/kg administered IV on a Q7Dx3 schedule. Each paclitaxel dose was combined with each MLN8237 dose on the QDx21 treatment schedule. In the combination treatment groups MLN8237 was administered first to the animals, followed immediately by the administration of paclitaxel. One group served as a vehicle-treated control group receiving PO treatment with the MLN8237 vehicle on a QIDx21 schedule.
# [2] = mouse, in vivo
# [3] = system: NCI-H82; experiment: NCI-H82 small cell lung cancer xenograft model
# [4] = Single agent maximum tolerated dose in mice
# [5] = system: cells; details: cells treated with MLN8054; cited from earlier work
compound,measurement,setting,value
"COc1cc(Nc2ncc3c(n2)-c2ccc(Cl)cc2C(c2c(F)cccc2OC)=NC3)ccc1C(=O)[O-].O.[Na+] [alisertib, sodium 4-{[9-chloro-7-(2-fluoro-6-methoxyphenyl)-5H-pyrimido[5,4-d][2]benzazepin-2-yl]amino}-2-methoxybenzoate monohydrate]",antitumor activity,[1]; single agent alisertib 20 mg/kg BID (maximum tolerated dose),prolonged regressions
same,single agent maximum tolerated dose in mice,[2],20 mg/kg BID
same,antitumor activity,[3]; single agent alisertib 10 mg/kg QD,no antitumor activity
CC[C@@]1(O)C(=O)OCc2c1cc1n(c2=O)Cc2cc3c(CN(C)C)c(O)ccc3nc2-1 [topotecan],single agent maximum tolerated dose,[4]; IV,1.5 mg/kg Q5D
CC(=O)O[C@H]1C(=O)[C@@]2(C)[C@H]([C@H](OC(=O)c3ccccc3)[C@]3(O)C[C@H](OC(=O)[C@H](O)[C@@H](NC(=O)c4ccccc4)c4ccccc4)C(C)=C1C3(C)C)[C@]1(OC(C)=O)CO[C@@H]1C[C@@H]2O [paclitaxel],antitumor activity,[1]; single agent paclitaxel 30 mg/kg (maximum tolerated dose),sustained cures
same,single agent maximum tolerated dose in mice,[4],30 mg/kg QD
same,antitumor activity,[3]; single agent paclitaxel 15 mg/kg QW,no antitumor activity
O=C(O)c1ccc(Nc2ncc3c(n2)-c2ccc(Cl)cc2C(c2c(F)cccc2F)=NC3)cc1 [MLN8054],cell fate after repeated defective mitotic divisions,[5],undergo senescence
same,chromosome content of treated cells,[5],develop aneuploidy that increases over time
